What was measured:
[1] = LNP size, PDI and zeta potential by Dynamic Light Scattering (Method A); type: physicochemical; settings: LNP formulated by Method A; for Zeta potential (mV): 1xPBS pH 7.4; for PDI / Size (nm): DLS; for Size (nm): Luciferase-mRNA loaded
Protocol: (§1) The synthesized lipids were tested in term of in vitro transfection efficacy and toxicity on HeLa cells. In order to perform the mentioned biological tests, appropriate LNPs had to be formulated from the synthesized lipids. The formulation technique was different in Method A and B. The particle size, PDI and zeta potential of resulting LNPs were determined by means of Dynamic Light Scattering technique (DLS). Prior to biological testing the encapsulation efficiency (EE) of the loaded LNPs was determined by using RiboGreen RNA assay. In case of Method A Luciferase-mRNA while in case of Method B GFP-mRNA was transfected into the cells. In parallel with the transfection experiments, toxicity of the investigated LNPs was determined, in case of Method A resazurin assay while in case of Method B MTT assay was used. In the case of some lipids, the apparent pKa in LNPs was determined by using TNS titration based on the method described: Angew Chem Int Ed Engl. 2012, 51 (34), 8529-8533, doi: 10.1002/anie.201203263).
• 1. If needed, prepare stock solutions by solving known amounts of lipid powder into an appropriate solvent. The recommended solvent is Ethanol and the recommended concentration is typically in the range 10-50 mM. Higher concentrations are preferred to allow flexibility on mRNA-LNP concentration. • 2. Remove the lipid stock solutions from the −20° C. freezer. For long-term storage, −80° C. is used. • 3. Check the vials for precipitation, DOPE (CAS #4004-05-1) (20 mM) and DSPE-PEG (CAS #474922-26-4) (5 mM) may need a 5-30 minute incubation step at 37° C. with intermittent vortexing to resuspend all contents. […] As a last resort, lipids may be heated to 50° C. to resuspend, time should be kept as short as possible to prevent oxidation or other modifying or degradative processes. • 4. Mix the lipids by vortexing for 2 minutes. • 5. […] Cooling the solution prevent excessive evaporation of ethanol or similar solvents upon opening. • 6. Meanwhile, thaw the RNA samples, including the latest SecNLuc control, by inserting the frozen tube in a room temperature aluminium block. • 7. Prepare for each LNP-formulation with identical mRNA component, an RNA master mix according to Table 1 below in a fresh tube. Use of a master mix allows more precise comparison of lipid formulations relative to each other. Split the master mix over a number of fresh tubes equal to the number of samples+controls. Each tube contains 375 μl of mRNA in 10 mM Citrate pH 4.0. • 8. Prepare for each LNP formulation with identical lipid composition a Lipid master mix according to Table 1 below in a fresh tube, exclude the lipid of interest. Use of a master mix allows more precise comparison of the novel ionizable lipid relative to each other. Split the master mix over a number of fresh tubes equal to the number of samples+controls. Each tube contains 65.5 μl of lipid master mix. • 9. Add the ionizable lipid of interest to the equally divide lipid master mix. Mix well by pipetting up and down. Label the tube according to the ionizable lipid used. • 10. Power on the ‘L 1 formulation machine’ (L 1 FM) and allow it to do a calibration of motor positions.
• 18. Fill a fresh syringe (C) through a blunt 18 G stainless steel needle with the previously prepared RNA mixture of step 6. The volume should be approximately […] of total formulation volume+25 μl (dead-volume). Make sure to remove all air bubbles by tapping. • 19. Fill a fresh syringe (D) through a blunt 18 G stainless steel needle with the Lipid master mix. The volume should be approximately 35% of total formulation volume+25 μl (dead-volume). Again, Make sure to remove all bubbles. • 20. Attach the syringes in the correct orientation, syringe A on the left and syringe B on the right • 21. Load the ‘Receiving station’ with appropriate sized collection containers (2 ml Eppendorf tubes). • 22. Press the microfluidic chip to the back of the machine with your thumb and hold, press the ‘Button 1’ (40 g). […]

[2] = system: HeLa cells; assay: Transfection efficiency with Luciferase-mRNA, Nano-Glo assay (Method A); type: cell-based; settings: 100 ng Luciferase (SecNLuc) mRNA, 24 h, luminescence
Protocol: as §1
• 1. Prepare mRNA solution by adding 100 ng mRNA (SecNLuc, #P009024, RiboPro) to 5 μl Opti-MEM • a. multiply by number of wells, include different concentrations and add 10% extra • b. a standard set-up we use is 100 ng-50 ng-10 ng mRNA/well in triplicate, which would need 528 ng mRNA (includes 10% extra)
• 2. (If applicable) Prepare different concentrations in Opti-MEM (for instance 100/50/10 ng). • 3. Add 10 μl to each well and mix carefully by pipetting. • 4. Mix by swirling the plate horizontally at modest speed. Reverse in direction 3 times. • 5. Incubate for 24 hours (incubator).
This protocol is applied to measure luciferase activity for secreted NanoLuc and is based on the protocol by Promega (Nano-Glo® Luciferase Assay System #N1110-1150). The protocol is designed for a 384-wells plate, but volumes can be changed accordingly for other plates.
• 1. Plate cells (HeLa) in 96-well plate, grow until 80% confluent and transfect with SecNanoLuc mRNA and incubate for the desired period (24 h). • 2. After incubation, the translated protein is accumulated in the medium. Transfer medium to a new plate or tubes • 3. Transfer 12 μl of each sample to a black-walled, clear-bottom 384-well plate • a. Black-walled plates are important to prevent shine-through of luminescence from other wells; alternatively, multiple wells between samples can be left empty • 4. Set-up plate reader • 5. Prepare the desired amount of Nano-Glo® Luciferase Assay Reagent by combining one volume of Nano-Glo® Luciferase Assay Substrate with 50 volumes of Nano-Glo® Luciferase Assay Buffer • a. composition: 100 mM MES pH 6; 1 mM EDTA; 0.5% NP-50; 150 mM KCl; 1 mM DTT; 35 mM Thiourea • b. Briefly spin tubes containing substrate in a microcentrifuge before use • 6. Add and mix (by pipetting) 12 μl Nano-Glo® Luciferase Assay Reagent per well • a. Wait approximately 3 minutes before measuring luminescence. […] Measure luminescence in plate reader using standard protocol luciferase (this includes mixing sample in plate reader)

| Compound | Zeta potential (mV) [1] [mV] | PDI [1] | Size (nm) [1] [nm] | Transfection* (Method A = 100 ng mRNA) [2] |
| --- | --- | --- | --- | --- |
| CCCCCCCCOC(CCCCCN(CCCCO)CCCCCCOC(=O)C(CCCCCC)CCCCCCCC)O[Si](C)(C)CCCCCCCC (centres unmarked) [Example 128, 6-((6-((dimethyl(octyl)silyl)oxy)-6-(octyloxy)hexyl)(4-hydroxybutyl)amino)hexyl 2-hexyldecanoate] | −14.77 | 0.107 | 228.6 | 647195.5 |
| CC/C=C\C/C=C\C/C=C\C/C=C\C/C=C\CCCCN(CCCCO)CCCCCCO[Si](C)(C)OC(CCCCCCC)OCCCCCCCC (centres unmarked) [Example 205, 15-heptyl-5-((5Z,8Z,11Z,14Z,17Z)-icosa-5,8,11,14,17-pentaen-1-yl)-13,13-dimethyl-12,14,16-trioxa-5-aza-13-silatetracosan-1-ol] | −13.13 | 0.077 | 197.2 | 95124 |
| CCCCCCCCOC(CCCCCN(CCCCO)CCCCCCOC(=O)C(CCCCCCCC)SCCCCC)O[Si](C)(C)O[Si](C)(C)OCCCCCCCC (centres unmarked) [Example 183, 6-((4-hydroxybutyl)(6-(octyloxy)-6-((1,1,3,3-tetramethyl-3-(octyloxy)disiloxaneyl)oxy)hexyl)amino)hexyl 2-(pentylthio)decanoate] | −10.92 | 0.044 | 143.9 | 968235 |
| CCCCCCCCCCOC(CCCCC)O[Si](C)(C)OCCCCCCN(CCCCO)CCCCCCOC(=O)C(CCCCCC)CCCCCCCC (centres unmarked) [Example 145, 7-(4-hydroxybutyl)-15,15-dimethyl-17-pentyl-14,16,18-trioxa-7-aza-15-silaoctacosyl 2-hexyldecanoate] | −7.7 | 0.16 | 143.3 | 5735227 |
| CCCCCCCCCCSC(CCCC)C(=O)OCCCCCCN(CCCCO)CCCCCCO[Si](C)(C)OC(CCCCCCC)OCCCCCCCC (centres unmarked) [Example 176, 17-heptyl-7-(4-hydroxybutyl)-15,15-dimethyl-14,16,18-trioxa-7-aza-15-silahexacosyl 2-(decylthio)hexanoate] | −15.0 | 0.18 | 175.00 | 12359273 |
| CCCCCCCCCCSC(CCCC)C(=O)OCCCCCCN(CCCCO)CCCCCC(OCCCCCCCC)O[Si](C)(C)O[Si](C)(C)OCCCCCCCC (centres unmarked) [Example 172, 6-((4-hydroxybutyl)(6-(octyloxy)-6-((1,1,3,3-tetramethyl-3-(octyloxy)disiloxaneyl)oxy)hexyl)amino)hexyl 2-(decylthio)hexanoate] | −9.92 | 0.07 | 151.7 | 301328 |
| CCCCCCCCOC(CCCCCCCC)O[Si](C)(C)OCCCCCCN(CCCCO)CCCCCCOC(=O)C(CCCCCC)CCCCCCCC (centres unmarked) [Example 143, 7-(4-hydroxybutyl)-15,15-dimethyl-17-octyl-14,16,18-trioxa-7-aza-15-silahexacosyl 2-hexyldecanoate] | −5.5 | 0.17 | 159.7 | 4825007 |
| CCCCCCCCC(CCCCCC)C(=O)OCCCCCCN(CCCCO)CCCCCCO[Si](C)(C)OC(CCCCCCC)OCCCCCCC (centres unmarked) [Example 140, 17-heptyl-7-(4-hydroxybutyl)-15,15-dimethyl-14,16,18-trioxa-7-aza-15-silapentacosyl 2-hexyldecanoate] | −4.5 | 0.05 | 130.8 | 6292223 |
| CCCCCCCCOC(CCCCCN(CCCCO)CCCCCC(OCCCCCCCC)O[Si](C)(C)O[Si](C)(C)CCCCCCCC)O[Si](C)(C)O[Si](C)(C)CCCCCCCC (centres unmarked) [Example 107, 4-(bis(6-(octyloxy)-6-((1,1,3,3-tetramethyl-3-octyldisiloxaneyl)oxy)hexyl)amino)butan-1-ol] | −11.69 | 0.186 | 152.1 | 3677.5 |
| CCCCCCCCCCSC(CCCC)C(=O)OCCCCCCN(CCCCO)CCCCCCOC(CCCCCCC)O[Si](C)(C)O[Si](C)(C)OCCCCCCCC (centres unmarked) [Example 173, 15-heptyl-7-(4-hydroxybutyl)-17,17,19,19-tetramethyl-14,16,18,20-tetraoxa-7-aza-17,19-disilaoctacosyl 2-(decylthio)hexanoate] | −11.32 | 0.033 | 180.5 | 182533 |
| CCCCCCCCCC(OCCCCCCN(CCCCO)CCCCCCOC(CCCCCCCCC)O[Si](C)(C)CCCCCC)O[Si](C)(C)CCCCCC (centres unmarked) [Example 104, 5-(6-((1-((hexyldimethylsilyl)oxy)decyl)oxy)hexyl)-15,15-dimethyl-13-nonyl-12,14-dioxa-5-aza-15-silahenicosan-1-ol] | −13.26 | 0.043 | 184.4 | 27631.5 |

From patent US20260008793A1, “IONIZABLE CATIONIC LIPIDS INCORPORATING SILICON” (ALDEXCHEM KFT., priority 2022, published 2026)
